US8148508 (dated 2012)

Assays:
clostripain [1] = test: 50 mM HEPES buffer (pH 6.7), 1 mM CaCl2, 1 mM cysteine, 4.8 M urea, 10, 20 and 35% ethanol; details: 25° C., up to 30 minutes
recombinant clostripain = test: cell free extract with 0.2 units of recombinant clostripain per mg precursor polypeptide; details: up to up to 3 hours
clostripain [2] = test: clostripain digestion under different pH conditions
clostripain [3] = test: 10 mM Tris, 1 mM EDTA, 5 mM CaCl2 (pH 8.0), varying clostripain ratios; details: 21° C.; also 40° C., up to 10 hr
clostripain [4] = test: cell free extract containing T7tag-GSDR-[GLP-2(1-34)]6 precursor, pH 6.4 NaH2PO4, 1 mM CaCl2, 1 mM DTT; details: 25° C., up to approximately 3 hours

Sequence	fragment found (clostripain [1])	fragment found (recombinant clostripain)	fragment found (clostripain [2])	fragment found (clostripain [3])	fragment found (clostripain [4])
HGDGSFSDEMNTILDNLAARDFINWLIQTKITD	GLP-2(21-33)	GLP-2 fragment (21-33)	GLP-2(21-33)	–	–
HADGSFSDEMNTILDNLAARDFINWLIQTKITDR	–	–	–	truncated GLP-2(21-34)	GLP-2 fragment (21-34)
